Read-outs that look alike come from different tables or passages of the source.

We go through 33 molecules from publication PMC7532339, “A cell-based large-scale screening of natural compounds for inhibitors of SARS-CoV-2” (Signal Transduction and Targeted Therapy, 2020).

One data set deals with Vero-E6 cells. Briefly: Cytotoxicity assay (CCK-8). Type of data set: cell-based. The following applies: Vero-E6 cells, 48 h, CCK-8. The procedure:
(§1) Vero-E6 cells were seeded in 96-well plates (1 × 10^4 cells per well) and allowed to grow for 24 h before treatment. Then, serial 2-fold dilutions of compounds were added to the cells. At 48 h, the cells were incubated with 10 μL CCK-8 reagent (cell counting kit-8, Bimake) for 1 h at 37 °C. The absorbance at 450 nm was read by a Microplate Reader (Varioskan Flash, Thermo Fisher). Cell viability was expressed as a percentage of the treated cells to the control (untreated) cells. For each compound concentration, three wells were performed in parallel, and the mean values of the cell viability were calculated.

Data set [1] concerns SARS-CoV-2. Briefly: Antiviral assay (viral RNA in supernatant by qRT-PCR). Type of data set: cell-based, SARS-CoV-2 (WIV-04). For orientation: In qPCR the cycle at which signal appears reflects the starting amount.
Data set [2] is described as follows: Cytotoxicity assay (CCK-8). Type of data set: cell-based. The following applies: African green monkey. The procedure: as §1
For data set [3], the system named is SARS-CoV-2. Briefly: Addition of sodium and potassium assay. Type of data set: cell-based, SARS-CoV-2 (WIV-04).
Data set [4] relates to SARS-CoV-2. Description: CPE-based HTS assay (CPE reduction quantified by CCK-8 cell viability). The following applies: for inhibition at 10 µM: Severe acute respiratory syndrome coronavirus 2, Vero C1008, 48 h, read-out: protection from CPE; for protection against SARS-CoV-2 infection: known inhibitors used as positive controls.
Where [5] appears, read: Severe acute respiratory syndrome coronavirus 2, Vero C1008.
[6] abbreviates: Vero-E6 cells, 48 h, CCK-8, read-out: CC50.
The mark [7] stands for this setting: Severe acute respiratory syndrome coronavirus 2, Vero C1008, read-out: EC50.
The mark [8] stands for this setting: primary screening, compound 10 µM, Vero-E6 cells, MOI 0.01, 48 hpi.

Molecule `C=C1C(=O)O[C@@H]2C[C@@]3(C)CCC[C@H](C)C3=C[C@H]12` [Alantolactone] returned a CC50 in the data set on Vero-E6 cells of 36.7 µM. Also, in the data set on SARS-CoV-2 [1] (read-out: EC50), the EC50 is 1.72 µM. Take `COC(=O)[C@@]12OC[C@]34[C@H]([C@@H](O)[C@@H]1O)[C@@]1(C)CC(=O)C(O)=C(C)[C@@H]1C[C@H]3OC(=O)[C@H](OC(=O)CC(C)C)[C@@H]24` [Bruceine A]: the CC50 at 48 h in data set [2] worked out at 31.4 µM. For the same molecule, the EC50 in the data set on SARS-CoV-2 [1] (setting [5]) came to 0.011 µM. Consider `C[C@]12CC[C@H](O)C[C@H]1CC[C@@H]1[C@@H]2CC[C@]2(C)[C@@H](c3ccc(=O)oc3)CC[C@]12O` [Bufalin], for which, in the data set with SARS-CoV-2 [3], the “inhibitory effect on SARS-CoV-2 with added extracellular KCl” value was “suppressed by KCl” and the “inhibitory effect on SARS-CoV-2 with added extracellular NaCl” value is recorded as “enhanced by NaCl”. In addition, the CC50 at 48 h in data set [2] (setting [6]) is more than 40 µM. For the same molecule, the EC50 in the data set with SARS-CoV-2 [1] (setting [7]) stood at 0.018 µM. Further, the inhibition at 10 µM in the data set on SARS-CoV-2 [4] was more than 50%. For `CC(=O)O[C@H]1C[C@]2(O)[C@@H]3CC[C@@H]4C[C@@H](O)CC[C@]4(C)[C@H]3CC[C@]2(C)[C@H]1c1ccc(=O)oc1` [Bufotaline], in the data set on Vero-E6 cells, the CC50 is more than 40 µM. For the same molecule, the EC50 with SARS-CoV-2 [1] (read-out: EC50) stood at 0.0259 µM. With `CC(=O)O[C@H]1[C@H]2O[C@]23[C@@H]2CC[C@@H]4C[C@@H](O)CC[C@]4(C)[C@H]2CC[C@]3(C)[C@H]1c1ccc(=O)oc1` [Cinobufagin], the CC50 at 48 h in data set [2] (setting [6]) is more than 40 µM. Moreover, the EC50 in the data set with SARS-CoV-2 [1] (setting [7]) was determined as 0.018 µM. In data set [2], `COc1cc(/C=C/C=O)ccc1O` [Coniferylaldehyde] showed a CC50 at 48 h of more than 40 µM. The EC50 in the data set on SARS-CoV-2 [1] (setting [5]) was 11 µM. For `C=C[C@H]1[C@H](O[C@@H]2O[C@H](CO)[C@@H](O)[C@H](O)[C@H]2O)OC=C(C(=O)OC)[C@H]1CCOC(=O)c1cc(O)c(O)c(O)c1` [Cornuside], the CC50 in the data set with Vero-E6 cells was more than 40 µM. Besides, the EC50 with SARS-CoV-2 [1] (read-out: EC50) stood at 5.26 µM. As for `C[C@H]1COC2=C1C(=O)C(=O)c1c2ccc2c1CCCC2(C)C` [Cryptotanshinone], the CC50 at 48 h in data set [2] (setting [6]) is more than 100 µM. Further, the EC50 in the data set on SARS-CoV-2 [1] (setting [7]) stood at 5.02 µM. Besides, the inhibition at 10 µM with SARS-CoV-2 [4] is more than 50%. In data set [2], `C=C1CC[C@H]2C(=C)CC[C@H]3C(=C)C(=O)O[C@@H]3[C@@H]12` [Dehydrocostus lactone] returned a CC50 at 48 h of 36.2 µM. Moreover, the EC50 in the data set with SARS-CoV-2 [1] (setting [7]) is 2.32 µM.

As to `C/C=C/c1cc(OC)c2c(c1)C(C)C(c1ccc(O)c(OC)c1)O2` (centres unmarked) [Dehydrodiisoeugenol], in the data set with Vero-E6 cells, the CC50 was more than 100 µM. Also, in the data set with SARS-CoV-2 [1] (read-out: EC50), the EC50 was 10.3 µM.

Regarding `C[C@H]1O[C@@H](O[C@H]2[C@@H](O)C[C@H](O[C@H]3[C@@H](O)C[C@H](O[C@H]4CC[C@@]5(C)[C@H](CC[C@@H]6[C@@H]5C[C@@H](O)[C@]5(C)[C@@H](C7=CC(=O)OC7)CC[C@]65O)C4)O[C@@H]3C)O[C@@H]2C)C[C@H](O)[C@@H]1O` [Digoxin, reference compound], the CC50 at 48 h in data set [2] (setting [6]) is more than 40 µM. The EC50 with SARS-CoV-2 [1] (setting [7]) worked out at 0.154 µM. Also, the inhibition at 10 µM in the data set with SARS-CoV-2 [4] is more than 50%. Take `C=C1C(=O)O[C@@H]2C[C@@]3(C)CCCC(=C)[C@@H]3C[C@H]12` [Isoalantolactone]: the CC50 at 48 h in data set [2] (setting [6]) is more than 40 µM. Also, the 50% effective concentration (EC50) in the data set with SARS-CoV-2 [1] (setting [7]) came out at 1.48 µM. In the case of `COc1ccc(C[C@@H]2c3cc(Oc4cc(C[C@@H]5c6cc(O)c(OC)cc6CCN5C)ccc4O)c(OC)cc3CCN2C)cc1` [Isoliensinine], in data set [2], the midpoint of cytotoxicity, the CC50 at 48 h, lay at 40 µM. Besides, in the data set with SARS-CoV-2 [1] (setting [7]), the EC50 is 1.61 µM. In turn, `COc1cc2c(cc1OC)[C@@H](Cc1ccc(O)c(Oc3cc4c(cc3OC)CCN(C)[C@@H]4Cc3ccc(O)cc3)c1)N(C)CC2` [Liensinine] showed a CC50 with Vero-E6 cells of 25.4 µM. In addition, in the data set with SARS-CoV-2 [1] (read-out: EC50), the EC50 was 2.54 µM. Taken in the same sequence, the figures for `CC1(C)CC[C@]2(C(=O)O)CC[C@]3(C)C(=CC[C@@H]4[C@@]5(C)CC[C@H](O[C@@H]6O[C@H](C(=O)O)[C@@H](O)[C@H](O[C@@H]7OC[C@@H](O)[C@H](O)[C@H]7O)[C@H]6O)C(C)(C)[C@@H]5CC[C@]43C)[C@@H]2C1` [Momordinic] were more than 40 µM and 3.53 µM. `C=C1C(=O)[C@]23[C@H](O)[C@H]1CC[C@H]2[C@@]12CO[C@]3(O)[C@@H](O)[C@@H]1C(C)(C)CC[C@@H]2O` [Oridonin] showed a CC50 at 48 h in data set [2] of more than 40 µM. For the same molecule, in the data set on SARS-CoV-2 [1] (setting [7]), the EC50 was 1.46 µM. With `CO[C@H]1C[C@H](O[C@H]2CC[C@]3(C)[C@H]4CC[C@]5(C)[C@@H](C6=CC(=O)OC6)CC[C@]5(O)[C@@H]4CC[C@]3(O)C2)O[C@H](C)[C@H]1O[C@@H]1O[C@H](CO)[C@@H](O)[C@H](O)[C@H]1O` [Periplocoside], the CC50 in the data set on Vero-E6 cells is more than 40 µM. Further, the EC50 in the data set on SARS-CoV-2 [1] (read-out: EC50) is 0.0657 µM. Molecule `C=C(C)[C@@H]1CC[C@]2(C)[C@H](CC=C3[C@@H]4[C@@H](C)[C@H](C)CC[C@]4(C)CC[C@]32C)[C@@]1(C)CCC(=O)O` [Roburicacid] returned a CC50 in the data set with Vero-E6 cells of more than 40 µM. Further, the EC50 in the data set with SARS-CoV-2 [1] (read-out: EC50) stood at 5.27 µM. As for `COc1ccc(C(=O)O[C@H]2CC[C@@]3(C)[C@@H]4CC[C@H]5[C@]6(O)C[C@H](O)[C@@]7(O)[C@@H](CN8C[C@@H](C)CC[C@H]8[C@@]7(C)O)[C@]6(O)C[C@@]53O[C@]24O)cc1OC` [Veratridine], the CC50 at 48 h in data set [2] (setting [6]) was more than 100 µM. Also, the EC50 in the data set with SARS-CoV-2 [1] (setting [7]) came out at 2.38 µM. With `CC(C)=CCc1cc2c(cc1O)O[C@H](c1ccc(O)cc1)CC2=O` [bavachin], the inhibition at 10 µM with SARS-CoV-2 [4] (setting [8]) was more than 50%. For the molecule `COc1ccc2cc1Oc1ccc(cc1)C[C@H]1c3c(cc4c(c3Oc3cc5c(cc3OC)CCN(C)[C@@H]5C2)OCO4)CCN1C` [cepharanthine], the inhibition at 10 µM with SARS-CoV-2 [4] is more than 50%.

Turning to `CCN(CC)CCCC(C)Nc1ccnc2cc(Cl)ccc12` (centres unmarked) [chloroquine, reference compound], the EC50 in the data set on SARS-CoV-2 [1] (Severe acute respiratory syndrome coronavirus 2, Vero C1008, 48 h, read-out: EC50 determined by viral RNA copies) was 1.78 µM; in the data set on SARS-CoV-2 [4] (Severe acute respiratory syndrome coronavirus 2, Vero C1008, Vero-E6 cells, MOI 0.01, 48 hpi, CCK-8, read-out: EC50 (inhibition of CPE)) it was 2.65 µM. Further, the “protection against SARS-CoV-2 infection” value with SARS-CoV-2 [4] (Vero-E6 cells, MOI 0.01, 48 h) was “provided protection”. Consider `COc1ccc2cc1Oc1ccc(cc1)C[C@H]1c3cc(c(OC)cc3CCN1C)Oc1c(O)c(OC)cc3c1[C@H](C2)N(C)CC3` [fangchinoline], for which the inhibition at 10 µM in the data set with SARS-CoV-2 [4] is more than 50%. With `CC(C)=CCc1c(O)ccc(C(=O)/C=C/c2ccc(O)cc2)c1O` [isobavachalcone], in the data set with SARS-CoV-2 [4] (setting [8]), the inhibition at 10 µM is more than 50%.

Regarding `O[C@H]1[C@H]2c3cc4c(cc3CN3CCC(=C[C@@H]1O)[C@H]23)OCO4` [lycorine], the inhibition at 10 µM in the data set on SARS-CoV-2 [4] is more than 50%. On to `CC(C)=CCc1cc2c(cc1O)oc(=O)c1c3ccc(O)cc3oc21` [psoralidin], for which, in the data set with SARS-CoV-2 [4], the “protection from CPE” value was more than 50%. Turning to `CCC(CC)COC(=O)[C@H](C)N[P@](=O)(OC[C@H]1O[C@@](C#N)(c2ccc3c(N)ncnn23)[C@H](O)[C@@H]1O)Oc1ccccc1` [remdesivir, reference compound], in the data set on SARS-CoV-2 [4] (Vero-E6 cells, MOI 0.01, 48 h), the “protection against SARS-CoV-2 infection” value is on record as “provided protection”. Consider `COC(=O)[C@H]1[C@H]2C[C@@H]3c4[nH]c5cc(OC)ccc5c4CCN3C[C@H]2C[C@@H](OC(=O)c2cc(OC)c(OC)c(OC)c2)[C@@H]1OC` [reserpine, reference compound], for which, in the data set with SARS-CoV-2 [4] (setting [8]), the inhibition at 10 µM is more than 50%. Consider `Cc1coc2c1C(=O)C(=O)c1c-2ccc2c1CCCC2(C)C` [tanshinone IIA], for which, in the data set with SARS-CoV-2 [4] (setting [8]), the inhibition at 10 µM is more than 50%. For `COc1ccc2cc1Oc1ccc(cc1)C[C@H]1c3cc(c(OC)cc3CCN1C)Oc1c(OC)c(OC)cc3c1[C@H](C2)N(C)CC3` [tetrandrine], the inhibition at 10 µM with SARS-CoV-2 [4] (setting [8]) was more than 50%.

As to Brusatol, the EC50 in the data set on SARS-CoV-2 [1] (read-out: EC50) was 0.0492 µM. On to CB6: neutralizing human antibody CB6, for which the “protection against SARS-CoV-2 infection” value in the data set with SARS-CoV-2 [4] ([…]) is “provided protection”. On to IFN-α, for which the “protection against SARS-CoV-2 infection” value in the data set with SARS-CoV-2 [4] ([…]) is “provided protection”.

For orientation: CC50 means the concentration that lowers cell viability or growth by half. For orientation: EC50 means the concentration giving half of the maximal effect.
